Laboratory results taken from PubChem BioAssay (NCI).
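GI50: concentration for 50% inhibition of growth. TGI marks complete inhibition of growth.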

What was measured:
Assay in all cases: NCI tumour cell line growth inhibition, 384-well format
CAKI-1 renal = system: CAKI-1 renal
ACHN renal = system: ACHN renal
HT29 colon = system: HT29 colon
KM12 colon = system: KM12 colon
NCI-H522 lung = system: NCI-H522 lung
HOP-62 NSCLC = system: HOP-62 NSCLC
SNB-75 CNS = system: SNB-75 CNS
OVCAR-3 ovarian = system: OVCAR-3 ovarian
SF-295 CNS = system: SF-295 CNS
BT-549 breast = system: BT-549 breast
NCI-H226 lung = system: NCI-H226 lung
MOLT-4 leukemia = system: MOLT-4 leukemia
MCF7 breast = system: MCF7 breast
EKVX NSCLC = system: EKVX NSCLC
HL-60(TB) leukemia = system: HL-60(TB) leukemia
A549 NSCLC = system: A549 NSCLC
M14 melanoma = system: M14 melanoma
UACC-257 melanoma = system: UACC-257 melanoma
RPMI-8226 leukemia = system: RPMI-8226 leukemia
OVCAR-5 ovarian = system: OVCAR-5 ovarian
TK-10 renal = system: TK-10 renal
SW-620 colon = system: SW-620 colon
LOX IMVI melanoma = system: LOX IMVI melanoma
COLO 205 colon = system: COLO 205 colon
OVCAR-8 ovarian = system: OVCAR-8 ovarian
HOP-92 NSCLC = system: HOP-92 NSCLC
SN12C renal = system: SN12C renal
SK-MEL-5 melanoma = system: SK-MEL-5 melanoma
DU-145 prostate = system: DU-145 prostate
UACC-62 melanoma = system: UACC-62 melanoma
U251 glioblastoma = system: U251 glioblastoma
PC-3 prostate = system: PC-3 prostate
A498 renal = system: A498 renal
SF-268 CNS = system: SF-268 CNS
OVCAR-4 ovarian = system: OVCAR-4 ovarian
HS 578T breast = system: HS 578T breast
SK-OV-3 ovarian = system: SK-OV-3 ovarian
SF-539 CNS = system: SF-539 CNS
SK-MEL-28 melanoma = system: SK-MEL-28 melanoma
SNB-19 CNS = system: SNB-19 CNS
NCI-H322M lung = system: NCI-H322M lung
RXF 393 renal = system: RXF 393 renal
IGROV1 ovarian = system: IGROV1 ovarian
MDA-MB-468 breast = system: MDA-MB-468 breast
HCT-116 colon = system: HCT-116 colon
K-562 leukemia = system: K-562 leukemia
CCRF-CEM leukemia = system: CCRF-CEM leukemia
HCC-2998 colon = system: HCC-2998 colon
786-0 renal = system: 786-0 renal
NCI-H23 lung = system: NCI-H23 lung
T-47D breast = system: T-47D breast
NCI/ADR-RES ovarian = system: NCI/ADR-RES ovarian
HCT-15 colon = system: HCT-15 colon
NCI-H460 NSCLC = system: NCI-H460 NSCLC
MDA-MB-231 breast = system: MDA-MB-231 breast
MDA-MB-435 melanoma = system: MDA-MB-435 melanoma
UO-31 renal = system: UO-31 renal

Structure (SMILES): C[C@H](O)C(=O)N1CCC(CCn2c(Sc3cc4c(cc3Br)OCO4)nc3c(N)ncnc32)CC1
- GI50 (CAKI-1 renal): 657 nM
- TGI (CAKI-1 renal): 88800 nM
- GI50 (ACHN renal): 574 nM
- TGI (ACHN renal): > 100000 nM
- GI50 (HT29 colon): 337 nM
- TGI (HT29 colon): 20300 nM
- GI50 (KM12 colon): 318 nM
- TGI (KM12 colon): 10900 nM
- GI50 (NCI-H522 lung): 203 nM
- TGI (NCI-H522 lung): 410 nM
- GI50 (HOP-62 NSCLC): 582 nM
- TGI (HOP-62 NSCLC): 27800 nM
- GI50 (SNB-75 CNS): 1490 nM
- TGI (SNB-75 CNS): 7220 nM
- GI50 (OVCAR-3 ovarian): 405 nM
- TGI (OVCAR-3 ovarian): 3270 nM
- GI50 (SF-295 CNS): 433 nM
- TGI (SF-295 CNS): 1700 nM
- GI50 (BT-549 breast): 410 nM
- TGI (BT-549 breast): 2820 nM
- GI50 (NCI-H226 lung): 568 nM
- TGI (NCI-H226 lung): 7660 nM
- GI50 (MOLT-4 leukemia): 122 nM
- TGI (MOLT-4 leukemia): 268 nM
- GI50 (MCF7 breast): 286 nM
- TGI (MCF7 breast): 2810 nM
- GI50 (EKVX NSCLC): 649 nM
- TGI (EKVX NSCLC): 25100 nM
- GI50 (HL-60(TB) leukemia): 248 nM
- TGI (HL-60(TB) leukemia): 523 nM
- GI50 (A549 NSCLC): 318 nM
- TGI (A549 NSCLC): > 100000 nM
- GI50 (M14 melanoma): 361 nM
- TGI (M14 melanoma): 11800 nM
- GI50 (UACC-257 melanoma): 4380 nM
- TGI (UACC-257 melanoma): 31000 nM
- GI50 (RPMI-8226 leukemia): 472 nM
- TGI (RPMI-8226 leukemia): 2530 nM
- GI50 (OVCAR-5 ovarian): 723 nM
- TGI (OVCAR-5 ovarian): > 100000 nM
- GI50 (TK-10 renal): 522 nM
- TGI (TK-10 renal): 23300 nM
- GI50 (SW-620 colon): 303 nM
- TGI (SW-620 colon): 2550 nM
- GI50 (LOX IMVI melanoma): 327 nM
- TGI (LOX IMVI melanoma): 1070 nM
- GI50 (COLO 205 colon): 291 nM
- TGI (COLO 205 colon): 1840 nM
- GI50 (OVCAR-8 ovarian): 272 nM
- TGI (OVCAR-8 ovarian): 707 nM
- GI50 (HOP-92 NSCLC): 624 nM
- TGI (HOP-92 NSCLC): 2370 nM
- GI50 (SN12C renal): 333 nM
- TGI (SN12C renal): 1840 nM
- GI50 (SK-MEL-5 melanoma): 335 nM
- TGI (SK-MEL-5 melanoma): 19600 nM
- GI50 (DU-145 prostate): 420 nM
- TGI (DU-145 prostate): 13800 nM
- GI50 (UACC-62 melanoma): 534 nM
- TGI (UACC-62 melanoma): 3070 nM
- GI50 (U251 glioblastoma): 395 nM
- TGI (U251 glioblastoma): 1450 nM
- GI50 (PC-3 prostate): 655 nM
- TGI (PC-3 prostate): 4010 nM
- GI50 (A498 renal): 901 nM
- TGI (A498 renal): > 100000 nM
- GI50 (SF-268 CNS): 174 nM
- TGI (SF-268 CNS): 494 nM
- GI50 (OVCAR-4 ovarian): 17300 nM
- TGI (OVCAR-4 ovarian): > 100000 nM
- GI50 (HS 578T breast): 327 nM
- TGI (HS 578T breast): 2220 nM
- GI50 (SK-OV-3 ovarian): 827 nM
- TGI (SK-OV-3 ovarian): 76600 nM
- GI50 (SF-539 CNS): 223 nM
- TGI (SF-539 CNS): 442 nM
- GI50 (SK-MEL-28 melanoma): 589 nM
- TGI (SK-MEL-28 melanoma): 31200 nM
- GI50 (SNB-19 CNS): 694 nM
- TGI (SNB-19 CNS): > 100000 nM
- GI50 (NCI-H322M lung): 593 nM
- TGI (NCI-H322M lung): 58100 nM
- GI50 (RXF 393 renal): 346 nM
- TGI (RXF 393 renal): 26000 nM
- GI50 (IGROV1 ovarian): 299 nM
- TGI (IGROV1 ovarian): 1740 nM
- GI50 (MDA-MB-468 breast): 294 nM
- TGI (MDA-MB-468 breast): 743 nM
- GI50 (HCT-116 colon): 518 nM
- TGI (HCT-116 colon): > 100000 nM
- GI50 (K-562 leukemia): 271 nM
- TGI (K-562 leukemia): 4700 nM
- GI50 (CCRF-CEM leukemia): 229 nM
- TGI (CCRF-CEM leukemia): 783 nM
- GI50 (HCC-2998 colon): 127 nM
- TGI (HCC-2998 colon): 478 nM
- GI50 ([…]-0 renal): 607 nM
- TGI (786-0 renal): > 100000 nM
- GI50 (NCI-H23 lung): 214 nM
- TGI (NCI-H23 lung): 640 nM
- GI50 (T-47D breast): 344 nM
- TGI (T-47D breast): 1500 nM
- GI50 (NCI/ADR-RES ovarian): 9820 nM
- TGI (NCI/ADR-RES ovarian): 35500 nM
- GI50 (HCT-15 colon): 757 nM
- TGI (HCT-15 colon): 15600 nM
- GI50 (NCI-H460 NSCLC): 275 nM
- TGI (NCI-H460 NSCLC): 745 nM
- GI50 (MDA-MB-231 breast): 537 nM
- TGI (MDA-MB-231 breast): 7360 nM
- GI50 (MDA-MB-435 melanoma): 1270 nM
- TGI (MDA-MB-435 melanoma): > 100000 nM
- GI50 (UO-31 renal): 680 nM
- TGI (UO-31 renal): 58800 nM
